Results reported in US20260152491A1, “PESTICIDALLY ACTIVE HETEROCYCLIC DERIVATIVES WITH SULFUR CONTAINING SUBSTITUENTS” (SYNGENTA CROP PROTECTION AG, priority 2022, published 2026).

Tests used:
Format in all cases: in vivo
Chilo suppressalis = experiment: Activity against Chilo suppressalis (striped rice stemborer), artificial diet in 24-well plates; conditions: 144 h, application rate 200 ppm, L2 larvae, 6 days after infestation, in comparison to untreated samples, read-out: control (at least one of mortality, anti-feedant effect, growth inhibition)
Experimental: Example B1: Activity Against Chilo suppressalis (Striped Rice Stemborer)
24-well microtiter plates with artificial diet were treated with aqueous test solutions prepared from 10'000 ppm DMSO stock solutions by pipetting. After drying, the plates were infested with L2 larvae (6-8 per well). The samples were assessed for mortality, anti-feeding effect, and growth inhibition in comparison to untreated samples 6 days after infestation. Control of Chilo suppressalis by a test sample is given when at least one of the categories mortality, anti-feedant effect, and growth inhibition is higher than the untreated sample.

Diabrotica balteata = experiment: Activity against Diabrotica balteata (corn root worm), maize sprouts sprayed; conditions: 96 h, application rate 200 ppm, L2 larvae, 4 days after infestation, in comparison to untreated samples, read-out: effect in at least one of the two categories (mortality or growth inhibition)
Experimental: Example B2: Activity Against Diabrotica Balteata (Corn Root Worm)
Maize sprouts placed onto an agar layer in 24-well microtiter plates were treated with aqueous test solutions prepared from 10'000 ppm DMSO stock solutions by spraying. After drying, the plates were infested with L2 larvae (6 to 10 per well). The samples were assessed for mortality and growth inhibition in comparison to untreated samples 4 days after infestation.

Euschistus heros = experiment: Activity against Euschistus heros (neotropical brown stink bug), soybean leaves sprayed; conditions: 120 h, application rate 200 ppm, N2 nymphs, 5 days after infestation, in comparison to untreated samples, read-out: effect in at least one of the two categories (mortality or growth inhibition)
Experimental: Example B3: Activity Against Euschistus heros (Neotropical Brown Stink Bug)
Soybean leaves on agar in 24-well microtiter plates were sprayed with aqueous test solutions prepared from 10'000 ppm DMSO stock solutions. After drying the leaves were infested with N2 nymphs. The samples were assessed for mortality and growth inhibition in comparison to untreated samples 5 days after infestation.

Myzus persicae [1] = experiment: Activity against Myzus persicae (green peach aphid), feeding/contact activity, sunflower leaf discs; conditions: foliar, 144 h, application rate 200 ppm, aphid population of mixed ages, 6 days after infestation
Experimental: Example B4: Activity Against Myzus persicae (Green Peach Aphid) Feeding/Contact Activity
Sunflower leaf discs were placed onto agar in a 24-well microtiter plate and sprayed with aqueous test solutions prepared from 10'000 ppm DMSO stock solutions. After drying, the leaf discs were infested with an aphid population of mixed ages. The samples were assessed for mortality 6 days after infestation.

Myzus persicae [2] = experiment: Activity against Myzus persicae (green peach aphid), systemic activity, pea seedling roots in test solution; conditions: 144 h, test rate 24 ppm, aphid population of mixed ages, 6 days after placing seedlings into test solutions
Experimental: Example B5: Activity Against Myzus persicae (Green Peach Aphid) Systemic Activity
Roots of pea seedlings infested with an aphid population of mixed ages were placed directly into aqueous test solutions prepared from 10'000 DMSO stock solutions. The samples were assessed for mortality 6 days after placing seedlings into test solutions.

Plutella xylostella = experiment: Activity against Plutella xylostella (diamond back moth), artificial diet in 24-well plates; conditions: 192 h, application rate 200 ppm, eggs, 8 days after infestation, in comparison to untreated samples, read-out: effect in at least one of the two categories (mortality or growth inhibition)
Experimental: Example B6: Activity Against Plutella xylostella (Diamond Back Moth)
24-well microtiter plates with artificial diet were treated with aqueous test solutions prepared from 10'000 ppm DMSO stock solutions by pipetting. After drying, Plutella eggs were pipetted through a plastic stencil onto a gel blotting paper and the plate was closed with it. The samples were assessed for mortality and growth inhibition in comparison to untreated samples 8 days after infestation.

Spodoptera littoralis = experiment: Activity against Spodoptera littoralis (Egyptian cotton leaf worm), cotton leaf discs sprayed; conditions: foliar, 72 h, application rate 200 ppm, L1 larvae, 3 days after infestation, in comparison to untreated samples, read-out: control (at least one of mortality, anti-feedant effect, growth inhibition)
Experimental: Example B7: Activity Against Spodoptera littoralis (Egyptian Cotton Leaf Worm)
Cotton leaf discs were placed onto agar in 24-well microtiter plates and sprayed with aqueous test solutions prepared from 10'000 ppm DMSO stock solutions. After drying the leaf discs were infested with five L1 larvae. The samples were assessed for mortality, anti-feeding effect, and growth inhibition in comparison to untreated samples 3 days after infestation. Control of Spodoptera littoralis by a test sample is given when at least one of the categories mortality, anti-feedant effect, and growth inhibition is higher than the untreated sample.

CCS(=O)(=O)c1cc(C2(C#N)CC2)cnc1-c1coc2cc(Cl)ccc2c1=O [P.1, 1-[6-(7-chloro-4-oxo-chromen-3-yl)-5-ethylsulfonyl-3-pyridyl]-cyclopropanecarbonitrile]
≥ 80%: percent control (mortality, anti-feedant effect or growth inhibition) at 200 ppm (Chilo suppressalis) | percent effect (mortality or growth inhibition) at 200 ppm (Diabrotica balteata) | percent effect (mortality or growth inhibition) at 200 ppm (Euschistus heros) | mortality at 200 ppm (Myzus persicae [1]) | mortality at 24 ppm (Myzus persicae [2]) | percent effect (mortality or growth inhibition) at 200 ppm (Plutella xylostella) | percent control (mortality, anti-feedant effect or growth inhibition) at 200 ppm (Spodoptera littoralis)

CCS(=O)(=O)c1cc(C2(C#N)CC2)cnc1-c1coc2cc(I)ccc2c1=O [P.2, 1-[5-ethylsulfonyl-6-(7-iodo-4-oxo-chromen-3-yl)-3-pyridyl]cyclopropanecarbonitrile]
≥ 80%: percent control (mortality, anti-feedant effect or growth inhibition) at 200 ppm (Chilo suppressalis) | percent effect (mortality or growth inhibition) at 200 ppm (Diabrotica balteata) | percent effect (mortality or growth inhibition) at 200 ppm (Euschistus heros) | mortality at 200 ppm (Myzus persicae [1]) | percent effect (mortality or growth inhibition) at 200 ppm (Plutella xylostella) | percent control (mortality, anti-feedant effect or growth inhibition) at 200 ppm (Spodoptera littoralis)

CCS(=O)(=O)c1cc(C2(C#N)CC2)cnc1-c1coc2cc(Br)ccc2c1=O [P.3, 1-[6-(7-bromo-4-oxo-chromen-3-yl)-5-ethylsulfonyl-3-pyridyl]-cyclopropanecarbonitrile]
≥ 80%: percent control (mortality, anti-feedant effect or growth inhibition) at 200 ppm (Chilo suppressalis) | percent effect (mortality or growth inhibition) at 200 ppm (Diabrotica balteata) | percent effect (mortality or growth inhibition) at 200 ppm (Euschistus heros) | percent effect (mortality or growth inhibition) at 200 ppm (Plutella xylostella) | percent control (mortality, anti-feedant effect or growth inhibition) at 200 ppm (Spodoptera littoralis)

CCS(=O)(=O)c1cc(C2(C#N)CC2)cnc1-c1coc2cc(F)ccc2c1=O [P.4, 1-[5-ethylsulfonyl-6-(7-fluoro-4-oxo-chromen-3-yl)-3-pyridyl]cyclopropane-carbonitrile]
≥ 80%: percent control (mortality, anti-feedant effect or growth inhibition) at 200 ppm (Chilo suppressalis) | percent effect (mortality or growth inhibition) at 200 ppm (Diabrotica balteata) | percent effect (mortality or growth inhibition) at 200 ppm (Euschistus heros) | mortality at 24 ppm (Myzus persicae [2]) | percent effect (mortality or growth inhibition) at 200 ppm (Plutella xylostella) | percent control (mortality, anti-feedant effect or growth inhibition) at 200 ppm (Spodoptera littoralis)

CCS(=O)(=O)c1cc(C2(C#N)CC2)cnc1-c1coc2cc(C3CC3)ccc2c1=O [P.5, 1-[6-(7-cyclopropyl-4-oxo-chromen-3-yl)-5-ethylsulfonyl-3-pyridyl]-cyclopropane-carbonitrile]
≥ 80%: percent control (mortality, anti-feedant effect or growth inhibition) at 200 ppm (Chilo suppressalis) | percent effect (mortality or growth inhibition) at 200 ppm (Diabrotica balteata) | percent effect (mortality or growth inhibition) at 200 ppm (Euschistus heros) | percent effect (mortality or growth inhibition) at 200 ppm (Plutella xylostella) | percent control (mortality, anti-feedant effect or growth inhibition) at 200 ppm (Spodoptera littoralis)

CCS(=O)(=O)c1cc(C2(C#N)CC2)cnc1-c1coc2cc(-c3ccc(F)cc3)ccc2c1=O [P.6, 1-[5-ethylsulfonyl-6-[7-(4-fluorophenyl)-4-oxo-chromen-3-yl]-3-pyridyl]cyclopropane-carbonitrile]
≥ 80%: percent effect (mortality or growth inhibition) at 200 ppm (Diabrotica balteata) | percent effect (mortality or growth inhibition) at 200 ppm (Plutella xylostella) | percent control (mortality, anti-feedant effect or growth inhibition) at 200 ppm (Spodoptera littoralis)

CCS(=O)(=O)c1cc(C2(C#N)CC2)cnc1-c1coc2cc(-c3cc(F)cc(F)c3)ccc2c1=O [P.7, 1-[6-[7-(3,5-difluorophenyl)-4-oxo-chromen-3-yl]-5-ethylsulfonyl-3-pyridyl]-cyclopropanecarbonitrile]
≥ 80%: percent control (mortality, anti-feedant effect or growth inhibition) at 200 ppm (Chilo suppressalis) | percent effect (mortality or growth inhibition) at 200 ppm (Diabrotica balteata) | percent effect (mortality or growth inhibition) at 200 ppm (Euschistus heros) | percent effect (mortality or growth inhibition) at 200 ppm (Plutella xylostella) | percent control (mortality, anti-feedant effect or growth inhibition) at 200 ppm (Spodoptera littoralis)
